Earlier results as cited in patent US9238611B2, “Process for separating aryl carboxylic acids” (Reliance Industries Limited, priority 2012, dated 2016).

Conditions: per one milligram of the terephthalate salt

COc1ccc2c3c1O[C@H]1C(=O)CC[C@@]4(O)[C@@H](C2)N(C)CC[C@]314.COc1ccc2c3c1O[C@H]1C(=O)CC[C@@]4(O)[C@@H](C2)N(C)CC[C@]314.O=C(O)c1ccc(C(=O)O)cc1 [terephthalas oxycodonae]
amount of hydrochloridum oxycodonae pharmacologically equivalent to one milligram: 1.13 mg
